Measurements as given in US20240116921A1, “LACTAM (HETERO)[…] DERIVATIVES AS INHIBITORS OF ERBB2” (EnLiven Therapeutics, Inc., priority 2020, published 2024).
pIC50: −log10 of the molar value. Counter-ions that a name gives are not always drawn.

How the values were obtained:
[1] = target: Ba/F3 ERBB2 A775_G776insYVMA (Homo sapiens, UniProt P04626, DUP772-775, cells depend on it); assay: Cell viability assay, Ba/F3 ERBB2 A775_G776insYVMA; type: cell-based, mouse; settings: Ba/F3 ERBB2 YVMA cells, cell viability, 72 hours, CellTiter Glo; Table B5; read-out: Ba/F3 ERBB2 YVMA, IC50
How it was run: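 IL-3-independent Ba/F3 lines stably expressing the human ERBB2 insertion mutants were seeded at 3000 cells/well and exposed to compounds for 72 h at 37 °C, 5% CO2. Viability was read as ATP by CellTiter-Glo luminescence. Curves were fitted by sigmoidal nonlinear regression.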

[2] = target: T1, phosphorylated ERBB2 (pERBB2) (Homo sapiens, UniProt P04626); assay: Detection of phosphorylated ERBB2 (pERBB2) by ELISA in BT-474 cells; type: cell-based; settings: four hours incubation
T1 construct: endogenous in cells; host or cells: BT-474
How it was run: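 BT-474 cells (2.0×10^4/well) treated 4 h at 37 °C, 5% CO2 with compounds in four-fold dilutions from 10 µM to 0.01 nM. Lysate pERBB2 measured by ELISA with TMB read at 450 nm; % relative activity scaled between no-cell wells and 0.1% DMSO-treated cells.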

[3] = target: T2, phosphorylated EGFR (pEGFR) (Homo sapiens, UniProt P00533); assay: Detection of phosphorylated EGFR (pEGFR) in EGF-stimulated A431 cells; type: cell-based; settings: A431 cells (10% FBS), 4 hours incubation, EGF 30 ng/mL 10 minutes, AlphaLISA
T2 construct: performed to measure phosphorylated EGFR levels using A431 cells (10% FBS); endogenous in cells; host or cells: A431
How it was run: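 A431 cells in 10% FBS were preincubated with compound for 4 h at 37 °C, then stimulated with EGF (30 ng/mL final) for 10 min. pEGFR in lysates was read by AlphaLISA. % inhibition was calculated against DMSO and staurosporine-treated controls, and IC50 came from a four-parameter curve fit.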

T2 sequence (P00533 25-1210): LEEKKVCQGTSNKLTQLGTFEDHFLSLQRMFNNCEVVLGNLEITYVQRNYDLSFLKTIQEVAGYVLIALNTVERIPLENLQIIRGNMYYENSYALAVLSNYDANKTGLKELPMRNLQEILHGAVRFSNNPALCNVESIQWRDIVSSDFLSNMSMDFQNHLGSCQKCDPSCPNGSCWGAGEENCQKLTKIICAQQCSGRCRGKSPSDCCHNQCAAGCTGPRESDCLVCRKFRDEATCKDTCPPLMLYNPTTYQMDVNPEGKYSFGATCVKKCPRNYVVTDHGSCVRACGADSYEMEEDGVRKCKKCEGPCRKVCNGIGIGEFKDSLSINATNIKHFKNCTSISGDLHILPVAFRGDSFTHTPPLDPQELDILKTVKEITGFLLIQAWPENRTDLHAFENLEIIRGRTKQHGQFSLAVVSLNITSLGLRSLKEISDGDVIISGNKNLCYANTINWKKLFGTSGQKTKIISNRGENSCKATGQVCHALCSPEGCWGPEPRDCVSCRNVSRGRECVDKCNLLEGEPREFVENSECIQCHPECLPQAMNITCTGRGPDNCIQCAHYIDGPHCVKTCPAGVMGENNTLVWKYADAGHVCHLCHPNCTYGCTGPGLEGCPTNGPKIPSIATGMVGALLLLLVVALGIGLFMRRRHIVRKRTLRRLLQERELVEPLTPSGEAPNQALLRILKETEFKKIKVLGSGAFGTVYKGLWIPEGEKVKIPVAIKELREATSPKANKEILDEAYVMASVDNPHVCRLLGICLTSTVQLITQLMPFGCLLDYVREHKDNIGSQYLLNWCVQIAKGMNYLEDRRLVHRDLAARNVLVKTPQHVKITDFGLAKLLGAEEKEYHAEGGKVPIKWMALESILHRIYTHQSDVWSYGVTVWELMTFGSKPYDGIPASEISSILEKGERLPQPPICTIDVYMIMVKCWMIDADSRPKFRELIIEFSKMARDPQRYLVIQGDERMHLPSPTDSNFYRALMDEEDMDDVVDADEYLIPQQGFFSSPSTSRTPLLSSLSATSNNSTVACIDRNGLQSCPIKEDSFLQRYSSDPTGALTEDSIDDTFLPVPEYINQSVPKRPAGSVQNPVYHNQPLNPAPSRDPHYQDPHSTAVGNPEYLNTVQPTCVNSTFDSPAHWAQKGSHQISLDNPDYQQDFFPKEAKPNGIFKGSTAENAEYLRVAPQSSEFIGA
T1 sequence (P04626 23-1255): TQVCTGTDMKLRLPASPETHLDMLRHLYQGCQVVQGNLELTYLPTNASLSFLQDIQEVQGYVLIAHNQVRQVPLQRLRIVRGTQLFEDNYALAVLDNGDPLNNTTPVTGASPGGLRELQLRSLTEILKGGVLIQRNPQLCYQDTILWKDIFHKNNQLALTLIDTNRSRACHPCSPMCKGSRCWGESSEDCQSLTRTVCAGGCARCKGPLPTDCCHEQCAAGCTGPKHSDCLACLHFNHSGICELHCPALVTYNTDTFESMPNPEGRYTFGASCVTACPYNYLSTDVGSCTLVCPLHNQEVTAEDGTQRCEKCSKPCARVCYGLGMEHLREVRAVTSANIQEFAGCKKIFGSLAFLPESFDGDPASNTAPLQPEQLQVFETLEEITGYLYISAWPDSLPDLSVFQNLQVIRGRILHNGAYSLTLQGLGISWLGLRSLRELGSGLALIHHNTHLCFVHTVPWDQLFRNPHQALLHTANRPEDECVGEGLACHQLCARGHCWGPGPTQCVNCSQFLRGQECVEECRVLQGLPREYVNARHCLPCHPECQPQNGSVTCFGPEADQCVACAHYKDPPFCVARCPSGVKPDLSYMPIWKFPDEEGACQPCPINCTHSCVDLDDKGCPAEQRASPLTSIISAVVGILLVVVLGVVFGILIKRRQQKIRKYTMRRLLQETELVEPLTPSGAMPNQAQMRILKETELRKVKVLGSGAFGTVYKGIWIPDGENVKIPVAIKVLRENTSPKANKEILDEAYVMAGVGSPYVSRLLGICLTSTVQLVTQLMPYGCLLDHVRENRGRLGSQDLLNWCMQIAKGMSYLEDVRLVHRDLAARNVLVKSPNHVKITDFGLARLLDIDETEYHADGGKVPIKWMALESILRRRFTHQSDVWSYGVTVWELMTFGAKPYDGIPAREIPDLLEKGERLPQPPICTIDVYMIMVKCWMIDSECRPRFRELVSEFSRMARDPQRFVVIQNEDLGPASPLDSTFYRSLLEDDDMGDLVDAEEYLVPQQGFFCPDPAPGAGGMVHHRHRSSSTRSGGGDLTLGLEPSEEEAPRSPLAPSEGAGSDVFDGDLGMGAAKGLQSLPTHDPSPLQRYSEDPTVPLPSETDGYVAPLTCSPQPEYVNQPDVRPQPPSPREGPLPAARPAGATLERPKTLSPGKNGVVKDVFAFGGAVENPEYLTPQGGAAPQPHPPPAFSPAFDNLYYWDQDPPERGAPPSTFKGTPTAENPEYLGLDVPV
Ba/F3 ERBB2 A775_G776insYVMA, sequence (P04626 with tags, fused parts or gaps DUP772-775): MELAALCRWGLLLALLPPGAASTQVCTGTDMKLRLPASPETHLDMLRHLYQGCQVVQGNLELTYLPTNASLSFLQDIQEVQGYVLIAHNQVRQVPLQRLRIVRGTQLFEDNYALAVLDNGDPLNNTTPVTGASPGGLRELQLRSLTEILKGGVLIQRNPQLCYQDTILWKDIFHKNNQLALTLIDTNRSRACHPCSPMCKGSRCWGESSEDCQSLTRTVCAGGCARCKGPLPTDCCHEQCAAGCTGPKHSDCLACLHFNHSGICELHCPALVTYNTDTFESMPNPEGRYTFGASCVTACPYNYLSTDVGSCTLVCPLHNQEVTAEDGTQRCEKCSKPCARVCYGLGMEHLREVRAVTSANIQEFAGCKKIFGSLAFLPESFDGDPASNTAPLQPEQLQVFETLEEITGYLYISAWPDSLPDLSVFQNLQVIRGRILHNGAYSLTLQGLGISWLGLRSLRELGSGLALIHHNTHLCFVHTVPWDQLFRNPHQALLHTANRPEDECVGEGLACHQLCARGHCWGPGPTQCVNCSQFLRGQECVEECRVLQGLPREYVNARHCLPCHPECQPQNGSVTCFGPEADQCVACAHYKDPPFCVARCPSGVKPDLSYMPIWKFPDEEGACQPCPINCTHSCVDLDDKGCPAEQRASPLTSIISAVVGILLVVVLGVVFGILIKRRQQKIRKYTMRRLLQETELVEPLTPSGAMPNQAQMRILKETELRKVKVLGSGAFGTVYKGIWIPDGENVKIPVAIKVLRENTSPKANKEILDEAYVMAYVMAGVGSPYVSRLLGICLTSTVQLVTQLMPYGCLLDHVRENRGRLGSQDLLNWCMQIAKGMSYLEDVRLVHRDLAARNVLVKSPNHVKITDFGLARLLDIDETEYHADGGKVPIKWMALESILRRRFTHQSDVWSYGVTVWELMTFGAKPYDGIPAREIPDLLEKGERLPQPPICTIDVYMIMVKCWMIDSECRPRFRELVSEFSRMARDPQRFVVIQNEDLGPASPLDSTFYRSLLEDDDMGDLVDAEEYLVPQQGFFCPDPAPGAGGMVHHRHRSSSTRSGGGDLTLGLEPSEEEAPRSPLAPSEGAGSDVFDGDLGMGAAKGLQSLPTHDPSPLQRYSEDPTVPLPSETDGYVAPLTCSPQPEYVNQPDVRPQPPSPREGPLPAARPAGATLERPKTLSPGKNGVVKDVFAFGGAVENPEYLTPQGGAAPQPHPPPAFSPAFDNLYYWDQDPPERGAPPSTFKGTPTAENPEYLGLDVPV

pIC50 [2] | pIC50 [3] | SMILES | GI50 [1] [nM]
7.74 | 5.13 | Cc1c(Oc2ccc3c(c2)ncn3C)ccc(Nc2ncnc3cnc(N4CC/C(=C\CN(C)C)C4=O)cc23)c1F [Compound 77, (3E)-3-[2-(dimethylamino)ethylidene]-1-[4-({2-fluoro-3-methyl-4-[(1-methyl-1,3-benzodiazol-5-yl)oxy]phenyl}amino)pyrido[3,4-d]pyrimidin-6-yl]pyrrolidin-2-one] | 3.61
8.06 | < 5.00 | Cc1cc(Nc2ncnc3ccc(N4CC/C(=C\CN(C)C)C4=O)nc23)c(F)cc1Oc1ccn2ncnc2c1 [Compound 79, (3E)-3-[2-(dimethylamino)ethylidene]-1-{4-[(2-fluoro-5-methyl-4-{[1,2,4]triazolo[1,5-a]pyridin-7-yloxy}phenyl)amino]pyrido[3,2-d]pyrimidin-6-yl}pyrrolidin-2-one] | 2.92
7.18 | 6.15 | Cc1cc(Nc2ncnc3cnc(N4CC/C(=C\CN(C)C)C4=O)cc23)ccc1Oc1cccnc1 [Compound 80, (3E)-3-[2-(dimethylamino)ethylidene]-1-(4-{[3-methyl-4-(pyridin-3-yloxy)phenyl]amino}pyrido[3,4-d]pyrimidin-6-yl)pyrrolidin-2-one] | 35.5
7.14 | 5.95 | Cc1cc(Nc2ncnc3ccc(N4CC/C(=C\CN(C)C)C4=O)nc23)ccc1Oc1ccn2c(C)cnc2c1 [Compound 81, (E)-3-(2-(dimethylamino)ethylidene)-1-(4-((3-methyl-4-((3-methylimidazo[1,2-a]pyridin-7-yl)oxy)phenyl)amino)pyrido[3,2-d]pyrimidin-6-yl)pyrrolidin-2-one] | 3.86
7.27 | 5.40 | Cc1cc(Nc2ncnc3cnc(N4CC/C(=C\CN(C)C)C4=O)cc23)ccc1Oc1ccn2c(C)cnc2c1 [Compound 82, (3E)-3-[2-(dimethylamino)ethylidene]-1-(4-{[3-methyl-4-({3-methylimidazo[1,2-a]pyridin-7-yl}oxy)phenyl]amino}pyrido[3,4-d]pyrimidin-6-yl)pyrrolidin-2-one] | 6.39
7.35 | 5.22 | Cc1cc(Nc2ncnc3ccc(N4CC/C(=C/CN(C)C)C4=O)nc23)ccc1Oc1ccc2c(c1)ncn2C [Compound 83, (Z)-3-(2-(dimethylamino)ethylidene)-1-(4-((3-methyl-4-((1-methyl-1H-benzo[d]imidazol-5-yl)oxy)phenyl)amino)pyrido[3,2-d]pyrimidin-6-yl)pyrrolidin-2-one] | 4.73
7.65 | 5.94 | Cc1cc(Nc2ncnc3cnc(N4CC/C(=C\CN(C)C)C4=O)cc23)ccc1Oc1ccc2c(c1)nnn2C [Compound 101, (E)-3-(2-(dimethylamino)ethylidene)-1-(4-((3-methyl-4-((1-methyl-1H-benzo[d][1,2,3]triazol-5-yl)oxy)phenyl)amino)pyrido[3,4-d]pyrimidin-6-yl)pyrrolidin-2-one] | 4.32
8.08 | 5.52 | Cc1cc(Nc2ncnc3cnc(N4CC/C(=C\CN5CCC5)C4=O)cc23)ccc1Oc1ccn2ncnc2c1 [Compound 102, (E)-1-(4-((4-([1,2,4]triazolo[1,5-a]pyridin-7-yloxy)-3-methylphenyl)amino)pyrido[3,4-d]pyrimidin-6-yl)-3-(2-(azetidin-1-yl)ethylidene)pyrrolidin-2-one] | 7.51

Further lines, the compound ahead of its results:

SMILES | pIC50 [2] | pIC50 [3] | GI50 [1] [nM]
Cc1c(Oc2ccn3ncnc3c2)ccc(Nc2ncnc3ccc(N4CC/C(=C\CN(C)C)C4=O)nc23)c1F [Compound 78, (3E)-3-[2-(dimethylamino)ethylidene]-1-{4-[(2-fluoro-3-methyl-4-{[1,2,4]triazolo[1,5-a]pyridin-7-yloxy}phenyl)amino]pyrido[3,2-d]pyrimidin-6-yl}pyrrolidin-2-one hydrochloride] | 7.77 | 5.80 | 9.92
C=C1CCN(c2nc3c(Nc4ccc(Oc5ccc6c(c5)ncn6C)c(C)c4)ncnc3s2)C1=O [Compound 84, 1-[7-({3-methyl-4-[(1-methyl-1,3-benzodiazol-5-yl)oxy]phenyl}amino)-[1,3]thiazolo[5,4-d]pyrimidin-2-yl]-3-methylidenepyrrolidin-2-one] | 6.37 | < 5.00 | 45
C=C1CCN(c2ccc3ncnc(Nc4ccc(Oc5ccc6c(c5)ncn6C)c(C)c4)c3n2)C1=O [Compound 87, 1-(4-((3-methyl-4-((1-methyl-1H-benzo[d]imidazol-5-yl)oxy)phenyl)amino)pyrido[3,2-d]pyrimidin-6-yl)-3-methylenepyrrolidin-2-one; formic acid] | 7.06 | 5.09 | 23
Cc1cc(Nc2ncnc3ccc(N4CC/C(=C\[C@@H]5CCCN5C)C4=O)nc23)ccc1Oc1ccn2ncnc2c1 [Compound 89, (S,E)-1-(4-((4-([1,2,4]triazolo[1,5-a]pyridin-7-yloxy)-3-methylphenyl)amino)pyrido[3,2-d]pyrimidin-6-yl)-3-((1-methylpyrrolidin-2-yl)methylene)pyrrolidin-2-one] | 7.54 | 6.16 | 1.87
Cc1cc(Nc2ncnc3ccc(N4CC/C(=C\[C@H]5CCCN5C)C4=O)nc23)ccc1Oc1ccn2ncnc2c1 [Compound 90, (R,E)-1-(4-((4-([1,2,4]triazolo[1,5-a]pyridin-7-yloxy)-3-methylphenyl)amino)pyrido[3,2-d]pyrimidin-6-yl)-3-((1-methylpyrrolidin-2-yl)methylene)pyrrolidin-2-one] | 7.77 | 5.24 | 10.8
CN(C)C/C=C1\CCN(c2ccc3ncnc(Nc4ccc(Oc5ccc6c(c5)ncn6C)c(F)c4)c3n2)C1=O [Compound 91, (3E)-3-[2-(dimethylamino)ethylidene]-1-[4-({3-fluoro-4-[(1-methyl-1,3-benzodiazol-5-yl)oxy]phenyl}amino)pyrido[3,2-d]pyrimidin-6-yl]pyrrolidin-2-one] | 7.72 | < 5.00 | 2.08
CN(C)C/C=C1\CCN(c2ccc3ncnc(Nc4ccc(Oc5ccc6c(c5)ncn6C)cc4)c3n2)C1=O [Compound 92, (3E)-3-[2-(dimethylamino)ethylidene]-1-[4-({4-[(1-methyl-1,3-benzodiazol-5-yl)oxy]phenyl}amino)pyrido[3,2-d]pyrimidin-6-yl]pyrrolidin-2-one] | 7.67 | < 5.00 | 3.12
C=C1CCCN(c2ccc3ncnc(Nc4ccc(Oc5ccn6ncnc6c5)c(C)c4)c3n2)C1=O [Compound 95, 1-(4-((4-([1,2,4]triazolo[1,5-a]pyridin-7-yloxy)-3-methylphenyl)amino)pyrido[3,2-d]pyrimidin-6-yl)-3-methylenepiperidin-2-one] | 7.91 | 6.32 | 5.2
C=C1CCCN(c2ccc3ncnc(Nc4ccc(Oc5ccc6c(c5)ncn6C)c(C)c4)c3n2)C1=O [Compound 96, 1-[4-({3-methyl-4-[(1-methyl-1,3-benzodiazol-5-yl)oxy]phenyl}amino)pyrido[3,2-d]pyrimidin-6-yl]-3-methylidenepiperidin-2-one] | 7.64 | 6.10 | 18.6
CN(C)C/C=C1\CCN(c2ccc3ncnc(Nc4ccc(Oc5ccc6c(c5)ncn6C)c(Cl)c4)c3n2)C1=O [Compound 98, (E)-1-(4-((3-chloro-4-((1-methyl-1H-benzo[d]imidazol-5-yl)oxy)phenyl)amino)pyrido[3,2-d]pyrimidin-6-yl)-3-(2-(dimethylamino)ethylidene)pyrrolidin-2-one] | 7.39 | 6.03 | 1.81
CN(C)C/C=C1\CCN(c2ccc3ncnc(Nc4ccc(Oc5ccc6c(c5)ncn6C)cc4F)c3n2)C1=O [Compound 99, (3E)-3-[2-(dimethylamino)ethylidene]-1-[4-({2-fluoro-4-[(1-methyl-1,3-benzodiazol-5-yl)oxy]phenyl}amino)pyrido[3,2-d]pyrimidin-6-yl]pyrrolidin-2-one] | 7.41 | < 5.00 | 6.64
CNC/C=C1\CCN(c2ccc3ncnc(Nc4ccc(Oc5ccc6c(c5)ncn6C)c(C)c4)c3n2)C1=O [Compound 100, (3E)-1-[4-({3-methyl-4-[(1-methyl-1,3-benzodiazol-5-yl)oxy]phenyl}amino)pyrido[3,2-d]pyrimidin-6-yl]-3-[2-(methylamino)ethylidene]pyrrolidin-2-one; formic acid] | 7.24 | 6.80 | 3.19
[2H]C([2H])([2H])N(C/C=C1\CCN(c2ccc3ncnc(Nc4ccc(Oc5ccc6c(c5)ncn6C)c(C)c4)c3n2)C1=O)C([2H])([2H])[2H] [Compound 105, (E)-3-(2-(bis(methyl-d3)amino)ethylidene)-1-(4-((3-methyl-4-((1-methyl-1H-benzo[d]imidazol-5-yl)oxy)phenyl)amino)pyrido[3,2-d]pyrimidin-6-yl)pyrrolidin-2-one] | 7.36 | 6.30 | 2.17
